Measurements reported in patent publication US9353061B2, “3,5,N-trihydroxy-alkanamide and derivatives: method for making same and use thereof” (Academia Sinica, priority 2012, dated 2016).
Values joined by “and” are separate entries in the source; they are usually repeats but may differ in a detail not shown here. Equal entries are not always repeated. Where two headings read alike, the source gives them in different places.

Legend:
HMG-CoA reductase (HMGR) = HMG-CoA reductase (HMGR) (Homo sapiens (Human), UniProt P04035); experiment: HMG-CoA reductase activity assay (NADPH consumption, Sigma kit); assay type: biochemical; settings: for HMGR inhibition (in words): enzyme-based; for IC50: human recombinant protein
Method: (§1) The HMGR activity was performed using HMG-CoA reductase assay kit from Sigma-Aldrich with the human recombinant protein or 100 μg total cell lysates from A549 cells. […] HMGR activity under defined assay conditions, containing NADPH and HMG-CoA substrate in a final volume of 0.2 mL of 100 mM potassium phosphatate buffer (120 mM KCl, 1 mM EDTA, 5 mM DTT, pH 7.4), were initiated in the presence or absence (control) of test compounds dissolved in dimethylsulfoxide (DMSO). The rates of NADPH consumption were monitored every 20 seconds, for up to 10 minutes, by spectrophotometer at 37° C. and 340 nm. The HMGR activity was calculated as a percentage of activity compared with the control group at 5 min. The IC50 values were calculated from software SigmaPlot.
(§2) HDAC fluorometric activity assay was performed using Fluor-de-Lys as the substrate (BIOMOL, Plymouth Meeting, Pa., USA), and HMGR inhibition was evaluated by the […].

HDAC1 = HDAC1 (Homo sapiens (Human), UniProt Q13547); experiment: HDAC fluorimetric activity assay (Fluor-de-Lys); assay type: biochemical; settings: recombinant HDAC1
Method: (§3) The HDAC activity was performed using the HDAC fluorescent activity assay kit (BIOMOL, Plymouth Meeting, Pa., USA) according to the manufacturer's instructions. Briefly, recombinant proteins of HDAC1 or HDAC6 were incubated with test compounds, and HDAC reaction was initiated by addition of Fluor-de-Lys substrate. Samples were incubated for 10 min at room temperature, followed by adding developer to stop the reaction. Fluorescence was measured by fluorometric reader with excitation at 360 nm and emission at 460 nm. The HDAC activity was expressed as arbitrary fluorescence units (AFU). The HDAC activity was calculated as a percentage of activity compared with the control group. The half maximal inhibitory concentration (IC50) values for the test compounds were calculated from software SigmaPlot.
as §2

HDAC6 = HDAC6 (Homo sapiens (Human), UniProt Q9UBN7); experiment: HDAC fluorimetric activity assay (Fluor-de-Lys); assay type: biochemical; settings: recombinant HDAC6
Method: as §3, §2

HDAC2 = HDAC2 (Homo sapiens (Human), UniProt Q92769); experiment: HDAC fluorimetric activity assay (Fluor-de-Lys); assay type: biochemical
[1] = system: MEF normal mouse fibroblast cells; experiment: cells; assay type: cell-based; settings: for cytotoxicity on MEF normal cells (in words) / IC50: 72 h; for cytotoxicity on MEF normal cells (in words): MTT, FIG. 4C/4D; for toxicity to normal cells at 100 μM: MEF; for IC50: MTT assay; for SI A549/MEF (selectivity index): ratio of IC50 values, cancer cell and normal cell
Method: (§4) The cell viability was measured by MTT assay.
(§5) A549 human lung carcinoma cells from American Type Culture Collection (ATCC) were cultured in Dulbecco's Modified Eagle Medium (DMEM). […] All mediums were supplemented with 10% fetal bovine serum (FBS), 100 U/mL penicillin G and 100 mg/mL streptomycin sulfate. Cells were maintained in a humidified incubator containing 5% CO2 in air. Cells were subcultured by trypsinization in laminar flow when grew about 80% in the culture dishes.
(§6) A549 cells were seeded at 3000 cells/well in 96-well plates and maintained for 14-16 hours. Cells were treated with dimethylsulfoxide DMSO or test compounds in varied concentrations for 72 h. Cells were then washed with PBS twice, added a medium containing 3-(4,5-dimethylthiazol-2-yl)-2,5-diphenyltetrazolium bromide (MTT) at a final concentration of 0.5 mg/mL, and incubated for 4 h at 37° C. in a humidified incubator containing 5% CO2 in air. Cells having functional succinate dehydrogenase of mitochondria would convert MTT to formazan. Then, the medium was replaced with 100 μL of DMSO for 30 min at room temperature, and the 96-well plate was read by an ELISA reader at 550 nm to get the absorbance density values. The IC50 values of death cell lines were calculated accordingly.

[2] = system: HS68 normal human fibroblast cells; experiment: cells; assay type: cell-based; settings: for cytotoxicity on HS68 normal cells (in words) / IC50: 72 h; for cytotoxicity on HS68 normal cells (in words): MTT, FIG. 4B/4D; for toxicity to normal cells at 100 μM: HS68, 100 μM; for IC50: MTT assay
Method: as §4, §5, §6

[3] = system: acetyl-histone H3 and acetyl-tubulin in A549 lung cancer cells; experiment: Western blot of acetyl-histone H3 and acetyl-tubulin; assay type: cell-based, human; settings: dose-dependent, FIG. 2
Method: FIG. 2 is a photo showing the effect of test compounds on acetylation of histone H3 and tubulin in A549 lung cancer cell lines. […] A549 cells were treated with the indicated doses of test compounds. Total cell lysates were prepared and subjected to SDS-PAGE using adequate percentage of polyacrylamide gels. Immunoblotting was performed using specific antibodies to evaluate the expression of different proteins.
Following treatment with test compounds, cells were lysed on ice. Total cell lysates were centrifuged at 13,000 rpm for 15 min at 4° C., and then subjected to SDS-PAGE using adequate percentage polyacrylamide gels. Immunoblotting was performed using specific antibodies to evaluate the expression of different proteins.
A549 lung cancer cells were treated with the test compound, and the expression of acetyl-histone H3 and acetyl-tubulin were analyzed by SDS-PAGE using immunoblotting.

[4] = biological target: HMG-CoA reductase in A549 lung cancer cells (Homo sapiens (Human), UniProt P04035); experiment: Cell-based assay of HMGR inhibition (cell lysates); settings: A549 cells treated 24 hours, FIG. 3
Method: as §1

[5] = system: A549 human lung cancer cells; experiment: Cell proliferation (MTT) assay, cancer cells; settings: for cell viability of A549 (in words): MTT, FIG. 4A/4D
Method: as §4, §5, §6

[6] = system: AOM/DSS-induced colitis-associated colorectal cancer; experiment: AOM/DSS colitis-associated colorectal cancer model, treatment after AOM/DSS; settings: for AOM/DSS-induced weight loss / clinical symptoms: oral 100 mg/kg, 5 days a week for 3 weeks after AOM/DSS; for histological examination of colon: treatment after AOM/DSS
Method: Lova-HA and Atorva-HA were dissolved in corn oil. Lova-HA (100 mg/kg), Atorva-HA (100 mg/kg) or the vehicle (corn oil) was orally administered after AOM/DSS treatment 5 days a week for 3 weeks. All mice were sacrificed after 12 weeks and colon segments were fixed in formalin.
To further investigate whether Lova-HA and Atorva-HA can treat cancer, a C57/BL6 mouse model of colitis-associated CRC was performed after the AOM and 3 cycles of DSS treatment. […] The formation of polyps and colonic tumors were macroscopically observed and counted.

[7] = system: AOM/DSS-induced colitis-associated colorectal cancer; experiment: AOM/DSS colitis-associated colorectal cancer model, chemoprevention
Excerpt: All mice were sacrificed at 9 weeks and colon segments were fixed by formalin.
Male C57BL6 mice obtained at 4-5 weeks of age were divided into four groups. […] All mice were sacrificed after 9 weeks and colon segments were fixed in formalin. H&E stain colonic sections were examined for colonic aberrant crypts.
The formation of polyps and colonic tumors were macroscopically observed and counted.

[8] = Homo sapiens, A549, 72 h, read-out: IC50 (μM) A549, 72 h, MTT assay

Chain of HDAC2 (Q92769 whole entry): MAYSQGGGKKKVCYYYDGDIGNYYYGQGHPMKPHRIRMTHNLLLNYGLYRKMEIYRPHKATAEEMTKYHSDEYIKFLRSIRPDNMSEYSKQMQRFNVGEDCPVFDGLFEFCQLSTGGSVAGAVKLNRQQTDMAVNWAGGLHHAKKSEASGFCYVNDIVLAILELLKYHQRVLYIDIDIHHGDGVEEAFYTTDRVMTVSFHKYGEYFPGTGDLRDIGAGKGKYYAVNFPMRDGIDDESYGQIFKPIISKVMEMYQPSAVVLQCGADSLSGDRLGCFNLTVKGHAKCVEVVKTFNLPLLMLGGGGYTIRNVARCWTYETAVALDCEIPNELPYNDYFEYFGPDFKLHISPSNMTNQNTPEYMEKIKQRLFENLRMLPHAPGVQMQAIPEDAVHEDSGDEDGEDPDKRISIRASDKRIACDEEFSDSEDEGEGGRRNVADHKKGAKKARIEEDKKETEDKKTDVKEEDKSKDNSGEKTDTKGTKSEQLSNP
Chain of HDAC1 (Q13547 whole entry): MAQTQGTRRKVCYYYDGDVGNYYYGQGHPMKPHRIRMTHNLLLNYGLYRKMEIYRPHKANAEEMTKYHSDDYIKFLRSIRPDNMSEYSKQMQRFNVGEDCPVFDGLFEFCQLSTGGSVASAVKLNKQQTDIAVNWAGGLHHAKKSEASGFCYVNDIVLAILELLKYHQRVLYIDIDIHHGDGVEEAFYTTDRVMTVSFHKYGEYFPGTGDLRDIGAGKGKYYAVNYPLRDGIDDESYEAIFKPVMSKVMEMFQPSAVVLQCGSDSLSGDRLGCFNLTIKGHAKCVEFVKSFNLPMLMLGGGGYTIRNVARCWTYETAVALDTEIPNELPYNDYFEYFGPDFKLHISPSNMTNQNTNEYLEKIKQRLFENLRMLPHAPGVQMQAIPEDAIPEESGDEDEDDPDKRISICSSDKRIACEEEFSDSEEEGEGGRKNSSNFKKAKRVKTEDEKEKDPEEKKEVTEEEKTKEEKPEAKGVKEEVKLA
Chain of HDAC6 (Q9UBN7 whole entry): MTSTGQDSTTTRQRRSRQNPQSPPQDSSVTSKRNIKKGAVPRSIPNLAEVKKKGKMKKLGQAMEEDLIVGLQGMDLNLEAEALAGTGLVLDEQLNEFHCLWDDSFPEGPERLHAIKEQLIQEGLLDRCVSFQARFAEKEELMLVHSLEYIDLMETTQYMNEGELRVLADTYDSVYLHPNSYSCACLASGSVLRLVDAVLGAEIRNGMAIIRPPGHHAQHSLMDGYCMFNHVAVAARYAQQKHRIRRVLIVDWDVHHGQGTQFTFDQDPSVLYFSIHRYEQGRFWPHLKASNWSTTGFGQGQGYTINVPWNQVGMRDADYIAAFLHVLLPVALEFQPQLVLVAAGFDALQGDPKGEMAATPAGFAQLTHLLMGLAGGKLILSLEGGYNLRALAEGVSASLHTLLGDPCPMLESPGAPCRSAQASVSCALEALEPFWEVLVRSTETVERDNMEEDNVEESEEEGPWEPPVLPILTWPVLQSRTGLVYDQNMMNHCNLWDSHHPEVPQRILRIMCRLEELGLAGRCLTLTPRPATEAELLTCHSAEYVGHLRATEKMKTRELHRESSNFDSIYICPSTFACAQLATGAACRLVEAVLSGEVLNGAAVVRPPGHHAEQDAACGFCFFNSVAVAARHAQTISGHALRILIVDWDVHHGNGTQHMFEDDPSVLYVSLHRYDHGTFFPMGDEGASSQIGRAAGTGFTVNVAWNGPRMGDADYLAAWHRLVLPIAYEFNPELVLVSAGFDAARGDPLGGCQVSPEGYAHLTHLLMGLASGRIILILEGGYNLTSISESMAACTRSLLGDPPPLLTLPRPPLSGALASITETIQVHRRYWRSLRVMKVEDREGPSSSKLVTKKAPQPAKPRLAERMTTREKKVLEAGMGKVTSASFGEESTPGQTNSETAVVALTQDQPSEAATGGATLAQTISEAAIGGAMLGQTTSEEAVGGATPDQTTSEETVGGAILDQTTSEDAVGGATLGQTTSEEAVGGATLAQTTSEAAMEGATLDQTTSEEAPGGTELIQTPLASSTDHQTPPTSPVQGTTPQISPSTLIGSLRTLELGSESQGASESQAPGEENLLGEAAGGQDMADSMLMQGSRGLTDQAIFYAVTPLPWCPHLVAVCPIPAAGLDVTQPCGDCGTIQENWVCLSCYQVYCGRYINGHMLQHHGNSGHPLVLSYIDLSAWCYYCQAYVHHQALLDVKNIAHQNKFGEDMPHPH
Chain of HMG-CoA reductase (HMGR) (P04035 426-888): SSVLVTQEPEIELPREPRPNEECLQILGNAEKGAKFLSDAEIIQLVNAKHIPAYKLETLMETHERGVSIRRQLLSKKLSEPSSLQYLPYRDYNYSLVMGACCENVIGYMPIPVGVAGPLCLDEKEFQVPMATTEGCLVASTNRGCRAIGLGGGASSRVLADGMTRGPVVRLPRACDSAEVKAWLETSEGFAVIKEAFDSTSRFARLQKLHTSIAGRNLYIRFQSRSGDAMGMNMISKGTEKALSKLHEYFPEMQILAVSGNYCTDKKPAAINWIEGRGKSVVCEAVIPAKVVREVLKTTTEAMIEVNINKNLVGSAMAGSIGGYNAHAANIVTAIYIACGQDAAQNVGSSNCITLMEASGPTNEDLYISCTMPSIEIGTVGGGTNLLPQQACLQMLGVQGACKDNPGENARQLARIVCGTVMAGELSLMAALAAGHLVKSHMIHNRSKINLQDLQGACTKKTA
Chain of HMG-CoA reductase in A549 lung cancer cells (P04035 whole entry): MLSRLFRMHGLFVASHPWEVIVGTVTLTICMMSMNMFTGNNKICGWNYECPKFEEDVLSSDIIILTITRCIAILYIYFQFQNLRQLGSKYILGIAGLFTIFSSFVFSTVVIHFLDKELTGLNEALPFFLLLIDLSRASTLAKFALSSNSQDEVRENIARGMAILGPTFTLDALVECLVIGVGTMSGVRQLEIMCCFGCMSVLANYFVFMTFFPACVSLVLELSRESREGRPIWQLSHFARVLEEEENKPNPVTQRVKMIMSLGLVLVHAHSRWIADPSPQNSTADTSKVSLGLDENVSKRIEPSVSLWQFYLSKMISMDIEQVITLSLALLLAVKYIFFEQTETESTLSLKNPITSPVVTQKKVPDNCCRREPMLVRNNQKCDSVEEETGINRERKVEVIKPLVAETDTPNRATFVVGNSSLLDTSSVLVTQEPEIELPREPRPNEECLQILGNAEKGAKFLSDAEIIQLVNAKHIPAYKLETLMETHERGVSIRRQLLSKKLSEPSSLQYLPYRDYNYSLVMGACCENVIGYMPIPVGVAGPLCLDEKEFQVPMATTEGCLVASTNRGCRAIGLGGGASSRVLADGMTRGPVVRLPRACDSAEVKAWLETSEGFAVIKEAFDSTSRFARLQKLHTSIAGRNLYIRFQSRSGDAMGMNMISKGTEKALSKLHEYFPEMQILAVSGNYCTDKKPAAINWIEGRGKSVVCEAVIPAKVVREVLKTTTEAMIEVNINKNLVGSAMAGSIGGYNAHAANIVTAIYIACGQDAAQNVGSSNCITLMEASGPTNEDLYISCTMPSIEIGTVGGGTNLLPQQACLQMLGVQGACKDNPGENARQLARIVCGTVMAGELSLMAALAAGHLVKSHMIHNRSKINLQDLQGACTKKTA

| Structure (SMILES) | HMGR inhibition (in words) (HMG-CoA reductase (HMGR)) | IC50 (HMG-CoA reductase (HMGR)) | IC50 (HDAC1) | IC50 (HDAC6) | IC50 (HDAC2) | cytotoxicity on MEF normal cells (in words) [1] | toxicity to normal cells at 100 μM [1] | IC50 ([1]; Mus musculus, Fibroblast) | SI A549/MEF (selectivity index) [1] | cytotoxicity on HS68 normal cells (in words) [2] | toxicity to normal cells at 100 μM [2] | IC50 ([2]; Homo sapiens, Hs68) | IC50 [5, 8] | AOM/DSS-induced weight loss [6] | clinical symptoms [6] | histological examination of colon [6] | also measured |
| --- | --- | --- | --- | --- | --- | --- | --- | --- | --- | --- | --- | --- | --- | --- | --- | --- | --- |
| CC(C)c1c(C(=O)Nc2ccccc2)c(-c2ccccc2)c(-c2ccc(F)cc2)n1CC[C@@H](O)C[C@@H](O)CC(=O)NO [Atorva-HA, (3R,5R)-7-[2-(4-Fluoro-phenyl)-5-isopropyl-3-phenyl-4-phenylcarbamoylpyrrol-1-yl]-3,5-dihydroxy-N-hydroxyheptanamide] | potent HMGR inhibition | 9.2 nM | 117 nM | 83.7 nM | 467 ± 19 nM | did not have cytotoxicity | not toxic | > 100 µM | >5.7 | did not have cytotoxicity | not toxic | > 100 µM | < 20 µM | could protect the weight loss | attenuated | surface tumor necrosis | acetylation of histone H3 and tubulin [3]: promoted the acetylations of histone and tubulin; HMGR inhibition in cell lysates compared with lovastatin [4]: equal or even better activity than lovastatin; cell viability of A549 (in words) ([5]; 72 h): reduced; IC50 ([5]; read-out: IC50 (μM) A549, 72 h, MTT assay, listed as Atorva-HA (5)): 17.5 ± 4.7 µM; number and size of tumors ([6]; 100 mg/kg oral): markedly reduced the number and size of tumors |
| O=C(CCCCCCC(=O)Nc1ccccc1)NO [SAHA, suberoylanalide hydroxamic acid, reference compound] | no significant inhibition | > 10000 nM | – | – | – | toxic to normal cells | – | – | – | toxic to normal cells | – | – | – | could not protect | attenuated | surface tumor necrosis | cell viability of A549 (in words) ([5]; 72 h): killed cancer cells |
| CC[C@H](C)C(=O)O[C@H]1C[C@@H](C)C=C2C=C[C@H](C)[C@H](CC[C@@H]3C[C@@H](O)CC(=O)O3)[C@H]21 [Lovastatin, lovastatin] | – | – | – | – | – | – | – | – | – | – | – | – | – | could not protect | not reversed | adenocarcinomas with dysplasia | IC50 [1]: 35 ± 5.9 µM; IC50 [2]: 23.2 ± 3.5 µM; colon length ([7]; 50 mg/kg oral): 8.0±0.9 cm; histological examination of colon ([7]; 50 mg/kg oral): adenocarcinomas with dysplasia; bleeding and diarrhea (clinical symptoms) ([7]; oral, Lova-HA 25 or 50 mg/kg, lovastatin 50 mg/kg): not reversed; body weight loss after AOM/DSS ([7]; oral, Lova-HA 25 or 50 mg/kg, lovastatin 50 mg/kg, 5 days a week for 8 weeks): but not lovastatin could protect the weight loss |
| CCC(C)C(=O)O[C@H]1C[C@@H](C)C=C2C=C[C@H](C)[C@H](CC[C@@H](O)C[C@@H](O)CC(=O)NO)[C@H]21 (some centres unmarked) [Lova-HA] | – | 16.8 ± 1.9 nM | 60.1 ± 5.3 nM | 50.5 ± 4 nM | 468 ± 27.2 nM | did not have cytotoxicity | not toxic | > 100 µM | >5.6 | did not have cytotoxicity | not toxic | > 100 µM | < 20 µM | – | – | – | IC50 ([5]; read-out: IC50 (μM) A549, 72 h, MTT assay, listed as Lova-HA (1)): 18.2 ± 3.4 µM; colon length ([7]; 25 mg/kg oral): 8.6±0.4 cm; colon length ([7]; 50 mg/kg oral): 10.1±0.9 cm |
| CC(C)c1nc(N(C)S(C)(=O)=O)nc(-c2ccc(F)cc2)c1/C=C/[C@@H](O)C[C@@H](O)CC(=O)NO [Rosuva-HA, (3R,5S,6E)-7-[4-(4-fluorophenyl)-2-(N-methylmethanesulfonamido)-6-isopropylpyrimidin-5-yl]-3,5-dihydroxy-N-hydroxy-6-heptenamide] | potent HMGR inhibition | 43.7 ± 1.6 nM | 125 ± 7.1 nM | 133 ± 5.5 nM | 400 to 630 nM and 600 nM | – | – | – | – | – | – | – | – | – | – | – | acetylation of histone H3 and tubulin [3]: promoted the acetylations of histone and tubulin |
| CC(C)c1c(C(=O)Nc2ccccc2)c(-c2ccccc2)c(-c2ccc(F)cc2)n1CC[C@@H](O)C[C@@H](O)CC(=O)O [Atorvastatin, atorvastatin] | – | – | – | – | – | – | – | 30.7 ± 3.2 µM | – | – | – | – | – | could not protect | not reversed | adenocarcinomas with dysplasia | – |
| CCC(C)(C)C(=O)O[C@H]1C[C@@H](C)C=C2C=C[C@H](C)[C@H](CC[C@@H](O)C[C@@H](O)CC(=O)NO)[C@H]21 [Simva-HA, (3R,5R)-7-{(1S,2S,6R,8S,8aR)-Hexahydro-2,6-dimethyl-8-[2-dimethylbutyryloxy]naphthalenyl}-3,5-dihydroxy-N-hydroxyheptanamide] | – | 11.4 nM | 60.7 ± 3.2 nM | 67.1 nM | 400 to 630 nM | did not have cytotoxicity | not toxic | > 100 µM | >5.0 | did not have cytotoxicity | not toxic | > 100 µM | < 20 µM | – | – | – | IC50 ([5]; read-out: IC50 (μM) A549, 72 h, MTT assay, listed as Simva-HA (2)): 20 ± 3.1 µM |
| CCC(C)(C)C(=O)O[C@H]1C[C@@H](C)C=C2C=C[C@H](C)[C@H](CC[C@@H]3C[C@@H](O)CC(=O)O3)[C@H]21 [simvastatin, reference compound] | – | – | – | – | – | – | – | 36.7 ± 4.4 µM | 2.3 | – | – | 26.4 ± 2.1 µM | – | – | – | – | IC50 ([5]; Homo sapiens, A549, 72 h, read-out: IC50 (μM) A549): 16.3 ± 0.1 µM |
